Test results as given in PubChem BioAssay (NCI).
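Interpolation was linear, between the two tested concentrations surrounding the appropriate level; five concentrations were tested over 48 hours in 96-well plates. At the TGI there is no net growth.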

Columns and labels:
Assay in all cases: NCI-60 cell line screen, 48 h
[1] = test system: 786-0 renal
[2] = test system: A549 NSCLC
[3] = test system: ACHN renal
[4] = test system: BT-549 breast
[5] = test system: CAKI-1 renal
[6] = test system: CCRF-CEM leukemia
[7] = test system: COLO 205 colon
[8] = test system: EKVX NSCLC
[9] = test system: HCC-2998 colon
[10] = test system: HCT-116 colon
[11] = test system: HCT-15 colon
[12] = test system: HOP-62 NSCLC
[13] = test system: HOP-92 NSCLC
[14] = test system: HS 578T breast
[15] = test system: HT29 colon
[16] = test system: IGROV1 ovarian
[17] = test system: K-562 leukemia
[18] = test system: KM12 colon
[19] = test system: LOX IMVI melanoma
[20] = test system: M14 melanoma
[21] = test system: MALME-3M melanoma
[22] = test system: MCF7 breast
[23] = test system: MDA-MB-231 breast
[24] = test system: MDA-MB-435
[25] = test system: MDA-N
[26] = test system: MOLT-4 leukemia
[27] = test system: NCI-H226 lung
[28] = test system: NCI-H23 lung
[29] = test system: NCI-H460 lung
[30] = test system: NCI-H522 lung
[31] = test system: NCI/ADR-RES ovarian
[32] = test system: OVCAR-3 ovarian
[33] = test system: OVCAR-4 ovarian
[34] = test system: OVCAR-5 ovarian
[35] = test system: OVCAR-8 ovarian
[36] = test system: PC-3 prostate
[37] = test system: RXF 393 renal
[38] = test system: SF-268 CNS
[39] = test system: SF-295 CNS
[40] = test system: SF-539 CNS
[41] = test system: SK-MEL-28 melanoma
[42] = test system: SK-MEL-5 melanoma
[43] = test system: SK-OV-3 ovarian
[44] = test system: SN12C renal
[45] = test system: SNB-19 CNS
[46] = test system: SNB-75 CNS
[47] = test system: SR leukemia
[48] = test system: SW-620 colon
[49] = test system: T-47D breast
[50] = test system: TK-10 renal
[51] = test system: UACC-257 melanoma
[52] = test system: UACC-62 melanoma
[53] = test system: UO-31 renal
[54] = test system: A498 renal
[55] = test system: DU-145 prostate
[56] = test system: RPMI-8226 leukemia
[57] = test system: SK-MEL-2 melanoma
[58] = test system: U251 CNS

SMILES: Cn1c(-c2csc(-c3ccc(Cl)cc3)n2)n[nH]c1=S
- TGI [1]: 32.2 µM
- TGI [2]: > 100 µM
- TGI [3]: 34.8 µM
- TGI [4]: 55.8 µM
- TGI [5]: 56.4 µM
- TGI [6]: > 100 µM
- TGI [7]: > 100 µM
- TGI [8]: > 100 µM
- TGI [9]: > 100 µM
- TGI [10]: 40.9 µM
- TGI [11]: > 100 µM
- TGI [12]: 30.2 µM
- TGI [13]: 27.1 µM
- TGI [14]: 83.7 µM
- TGI [15]: > 100 µM
- TGI [16]: 38 µM
- TGI [17]: > 100 µM
- TGI [18]: > 100 µM
- TGI [19]: 73 µM
- TGI [20]: > 100 µM
- TGI [21]: 69.6 µM
- TGI [22]: > 100 µM
- TGI [23]: 69.4 µM
- TGI [24]: > 100 µM
- TGI [25]: > 100 µM
- TGI [26]: > 100 µM
- TGI [27]: 57.3 µM
- TGI [28]: 75.5 µM
- TGI [29]: > 100 µM
- TGI [30]: 41 µM
- TGI [31]: > 100 µM
- TGI [32]: 34.9 µM
- TGI [33]: 50.9 µM
- TGI [34]: > 100 µM
- TGI [35]: 47.2 µM
- TGI [36]: > 100 µM
- TGI [37]: 46.3 µM
- TGI [38]: 81.4 µM
- TGI [39]: 34.3 µM
- TGI [40]: 46.7 µM
- TGI [41]: > 100 µM
- TGI [42]: > 100 µM
- TGI [43]: 32 µM
- TGI [44]: > 100 µM
- TGI [45]: 44.4 µM
- TGI [46]: 39.8 µM
- TGI [47]: > 100 µM
- TGI [48]: > 100 µM
- TGI [49]: > 100 µM
- TGI [50]: 40.2 µM
- TGI [51]: > 100 µM
- TGI [52]: 46.6 µM
- TGI [53]: 44.9 µM

SMILES: CCN1/C(=C/c2ccc3ccccc3[n+]2CC)C=Cc2ccccc21
- TGI [1]: 13.9 µM
- TGI [54]: 15 µM
- TGI [2]: 17.1 µM
- TGI [3]: 31.5 µM
- TGI [4]: 24 µM
- TGI [5]: 56.8 µM
- TGI [6]: 6.81 µM
- TGI [55]: 15.7 µM
- TGI [8]: 16.7 µM
- TGI [9]: 13.4 µM
- TGI [10]: 11.7 µM
- TGI [11]: 34.1 µM
- TGI [12]: 13.9 µM
- TGI [13]: 6.93 µM
- TGI [14]: 12.5 µM
- TGI [15]: 11 µM
- TGI [16]: 16.4 µM
- TGI [17]: > 100 µM
- TGI [18]: 1.4 µM
- TGI [19]: 4.86 µM
- TGI [20]: 12.8 µM
- TGI [21]: 6.89 µM
- TGI [22]: 13.1 µM
- TGI [23]: 8.12 µM
- TGI [24]: 1.67 µM
- TGI [25]: 2.04 µM
- TGI [26]: > 33.9 µM
- TGI [27]: 9.71 µM
- TGI [28]: 17.1 µM
- TGI [29]: 4.95 µM
- TGI [30]: 4.64 µM
- TGI [31]: 88.9 µM
- TGI [32]: 13.1 µM
- TGI [33]: 19.8 µM
- TGI [34]: 24.4 µM
- TGI [35]: 12.4 µM
- TGI [36]: 4.58 µM
- TGI [56]: > 23.4 µM
- TGI [37]: 12.8 µM
- TGI [38]: 16.5 µM
- TGI [39]: 10.5 µM
- TGI [40]: 13.7 µM
- TGI [57]: 3.9 µM
- TGI [41]: 15.9 µM
- TGI [42]: 3.77 µM
- TGI [44]: 12.8 µM
- TGI [45]: 27.8 µM
- TGI [46]: 2.27 µM
- TGI [47]: > 100 µM
- TGI [48]: 14.5 µM
- TGI [49]: 6.31 µM
- TGI [50]: 26.4 µM
- TGI [58]: 11.1 µM
- TGI [51]: 7.22 µM
- TGI [52]: 9.22 µM
- TGI [53]: 8.45 µM
